Data set [1] in a line: MALDI imaging mass spectrometry of dermal tissues adjacent to the implant. In kind it is in vivo, C57BL/6 J mice. Particulars: for Detection by MALDI-IMS in dermal tissue samples during implant TAF delivery: all medicated specimens; for Spatial distribution in dermal tissue sections (MALDI-IMS): high-releasing (0.58 mg d^-1) implants, D3–D28; for MALDI-IMS signal and localization with implant in situ: low-releasing (0.23 mg d^-1) implants, Day 14, 100 µm resolution. As to the method:
The used implants, the surrounding capsule, and the encasing dermal tissue were removed as a block in accordance with ISO 10993-6 guidelines, processed and stored, as described elsewhere. Briefly, the capsule was cut longitudinally and rolled open, taking care not to disrupt the architecture of the tissue or to damage the used implant. A portion of the tissue specimen was placed into 4% paraformaldehyde solution (phosphate-buffered at pH 7.2), and stored at 4 °C, for histopathology and two other portions were flash-frozen in liquid nitrogen for drug concentration analysis as well as for drug spatial distribution analysis by MALDI-IMS (vide infra).
Frozen mouse tissue specimens were shipped to Vanderbilt University on dry ice and stored at − 80 °C prior to use. Tissues were removed from the − 80 °C freezer and placed in a − 20 °C cryostat (CM 1900, Leica Biosystems, Buffalo Grove, IL) and sectioned. Tissue samples that had been prepared via removal of the used implant were affixed to the cryostat chuck with optimal cutting temperature (OCT) polymer and were cut on the cryostat into 12 µm thick sections for imaging mass spectrometry and H&E staining.
Tissue samples that still contained the implant in place were embedded in OCT prior to sectioning. In order to minimize the artifactual signal from the TAF powder after sectioning (the act of the cryostat blade cutting through an intact implant distributed residual TAF powder that still remained in the used implant onto the surrounding tissue section), house vacuum was used to remove visible TAF powder, followed by lightly running nitrogen gas over the plate to remove any additional loose powder from the slide.
The tissue sections were thaw-mounted onto indium-tin oxide coated glass slides for imaging (Delta Technologies, Ltd, Loveland, CO). The tissue sections were left to dry for at least 15 min in a desktop vacuum desiccator prior to matrix application. […] For 9AA, four passes were applied at 85 °C in a crisscross pattern, with a 700 mm min^-1 stage velocity, 2 mm track spacing, and 0.15 mL min^-1 flow rate. For DHB the same method was used, except eight passes were applied and the stage velocity was 1300 mm min^-1.
Flash-frozen dermal tissue samples collected adjacent to the TAF implants and sectioned were analyzed with a linear ion trap mass spectrometer equipped with a MALDI source and a nitrogen laser (LTQ XL, Thermo Scientific, Waltham, MA). The structures of compounds of interest are shown in Scheme 1. Targeted MS/MS methods were optimized for each compound using authentic samples as standards, with the final parameters shown in Appendix A under Supplementary Information. Pseudo-selected reaction monitoring mode was used for imaging by isolating precursor ions with a 1 Da window, fragmenting them, and acquiring full product ion mass spectra at each pixel. TFV, TFV-MP, and TFV-DP were analyzed in negative ion mode, while TAF, Metabolite X, and Metabolite Y were analyzed in positive ion mode. In most cases, after imaging, the matrix was removed and the tissue section that had been imaged was H&E stained for better image registration with tissue morphology. Standard images were acquired at either 50 or 100 µm spatial resolution. Reconstructed ion images were generated in ImageQuest software (Thermo Scientific, Waltham, MA) by plotting the intensity of the diagnostic fragment ion or ions as a function of location across the tissue surface.

Details of data set [2]: method as in PMID 23600365. Particulars: healthy individuals; cited from earlier work.
Another data set concerns HIV-1. Particulars: cited from earlier work.
A short description of data set [3]: Intravenous TAF pharmacokinetic mouse study (plasma, PBMC, tissue homogenate). In kind it is in vivo, C57BL/6 J mice. Particulars: for half-life: C57BL/6 J, mouse, iv, 0.5 mg. As to the method: C57BL/6 J Mice (9 groups of 4 animals each; 36 mice total) were administered the study product (0.5 mg dose, 0.1 mL) by intravenous (IV) injection. Animals (N = 4) were sacrificed at the following timepoints: Day 1 (1, 3, 6, 12, 24 h), Day 2, 4, 8, and 14. Blood was collected by exsanguination along with select tissue specimens (vide infra).
The isolation of plasma and PBMCs from blood samples was carried out in a laminar flow hood using aseptic techniques, and the entire process was completed in under 45 min to minimize analyte metabolism. Blood was transferred into collection tubes containing sodium citrate (final concentration, 0.4% w/v), diluted using one volume equivalent of 1 × PBS solution, and mixed by inversion. The minimum final volume was 4.0 mL. Prior to the addition of blood samples, Ficoll-Paque media (MilliporeSigma, Burlington, MA, 3.2 mL) was transferred into a 12 mL LeucoSep tube (Greiner, Monroe, NC) and centrifuged at 1000 g for 20 s at room temperature, causing the media to settle just below the porous barrier. The homogenous, diluted blood-PBS mixture was transferred into the prepared LeucoSep tube and centrifuged at 1000 g for 10 min at room temperature, resulting in the formation of three layers above the porous barrier: (A) top layer, consisting of the plasma fraction; (B) middle, interface layer, containing the PBMCs; and (C) thin lower layer, just above the barrier, consisting of Ficoll-Paque media. Layer A (plasma) was transferred to empty 1.5 mL microfuge tubes in 0.5 mL aliquots, and flash-frozen in liquid nitrogen. Layer B (PBMCs) was transferred into an empty 15 mL centrifuge tube and PBS added to the 12 mL mark, followed by gentle inversion mixing. The suspension was centrifuged at 400 g for 15 min, the supernatant removed, and the pellet resuspended in PBS (10 mL) by gentle pipetting. An aliquot (10 µL) was removed from the suspension for cell counting and the remaining sample was centrifuged at 400 g for 15 min. The supernatant was removed without disturbing the cell pellet, which was treated with ice-cold 70% v/v methanol in molecular-grade water (1.0 mL). The mixture was mixed lightly by vortex agitation to lyse the cells, followed by transfer to a 2.0 mL cryovial that was flash-frozen in liquid nitrogen.
Vaginal, rectal, spleen, and thymus tissue samples were collected from sacrificed animals at Day 1 (12, 24 h), Day 4, and 8; rectal tissue samples were not collected at 12 h. The samples were transferred into pre-weighed sample tubes, weighed, and flash-frozen in liquid nitrogen.
(§1) PBMC results were normalized to the number of cells and reported as fmol/10^6 cells or as intracellular concentration based on cell volume, in nM. Tissue results were normalized to sample mass and reported as ng mg^-1 or fmol mg^-1.

The nature of data set [4]: Subdermal TAF implant pharmacokinetic mouse study. The data set is classed as in vivo. Particulars: low- and high-releasing implants.
From the text: Two study groups are described here: one low-releasing and one high-releasing implant group. Animals (N = 3 per implant group) were sacrificed at the following timepoints: Day 3, 7, 14, 21, and 28 (15 mice total per implant group).
A short description of data set [5]: Subcutaneous TAF injection pharmacokinetic mouse study. In kind it is in vivo, C57BL/6 J mice. Particulars: C57BL/6 J, PBMCs, 0.5 mg, read-out: PBMC TFV-DP t1/2 (converted). As to the method:
C57BL/6 J Mice (12 groups of 4 animals each; 48 mice total) were administered the study product (0.5 mg dose, 0.1 mL) described above by subcutaneous (SQ) injection. Animals (N = 4) were sacrificed at the following timepoints: Day 1 (1, 3, 6, 12, 24 h), Day 2, 4, 6, 8, 10, 12, and 14. Blood was collected by exsanguination and processed as described above.
as §1

The conditions of data set [6]: rat, in vivo; cited from earlier work.

Where only a bound is given, the exact number is not on record here.

As for `C[C@H](Cn1cnc2c(N)ncnc21)OCP(=O)(O)OP(=O)(O)O` [TFV-MP], in data set [1], the “Detection by MALDI-IMS in dermal tissue samples during implant TAF delivery” value (“Detection by MALDI-IMS” below) is reported as “detected”; the “Spatial distribution in dermal tissue sections (MALDI-IMS)” value (from here on “Spatial distribution”) is reported as “distributed homogeneously throughout the samples”; the “MALDI-IMS signal and localization with implant in situ” value (from here on “MALDI-IMS signal and localization”) is on record as “weak”.

In the case of `CC(C)OC(=O)[C@H](C)N[P@](=O)(O)CO[C@H](C)Cn1cnc2c(N)ncnc21` [Metabolite Y], in data set [1], the “Detection by MALDI-IMS” value is reported as “detected”; the “Spatial distribution” value was “localized close to the implant”; the “MALDI-IMS signal and localization” value is recorded as “localized close to the implant”.

For `C[C@H](Cn1cnc2c(N)ncnc21)OC[P@@](=O)(O)N[C@@H](C)C(=O)O` [Metabolite X], in data set [1], the “Detection by MALDI-IMS” value is “detected”; the “Spatial distribution” value is “localized close to the implant”; the “MALDI-IMS signal and localization” value was “localized close to the implant”.

Take `C[C@H](Cn1cnc2c(N)ncnc21)OCP(=O)(O)OP(=O)(O)OP(=O)(O)O` [TFV-DP, TFV diphosphate]: the “Intracellular (PBMC) TFV-DP half-life” value in data set [2] is 48 h. In the data set with HIV-1 (corrected for TFV-DP loss on cryopreservation), the “TFV-DP EC90 (more conservative)” value is reported as 24 to 48 fmol/10^6 cells. Further, in the data set with HIV-1 (post hoc analysis of iPrEX, cryopreserved PBMCs), the “PBMC TFV-DP concentration associated with 90% protection” value was 16 fmol/10^6 cells. Further, the half-life in data set [3] (PBMCs, read-out: PBMC TFV-DP t1/2 (converted)) is 41 h; in data set [3] (female, rectal tissue, read-out: Terminal half-life in rectal tissue (NCA) (converted)), 26.4 h; in data set [3] (female, spleen, read-out: Terminal half-life in spleen (NCA) (converted)) it was 23.3 h; in data set [3] (female, thymus, read-out: Terminal half-life in thymus (NCA) (converted)), 23.3 h; in data set [3] (female, vaginal tissue, read-out: Terminal half-life in vaginal tissue (NCA) (converted)) it was 31.2 h; in data set [5], 17 h. The “Share of total TFV present as TFV-DP, vaginal tissue” value in data set [3] (IV TAF dosing) was determined as 5.1%. The “Median vaginal x(TFV-DP) lower than rectal, spleen, thymus” value in data set [3] (IV TAF, depending on the compartment) is on record as 4.7–6.7 fold. Moreover, the “Duration of TFV-DP concentrations in tissues” value in data set [3] (single bolus IV TAF administration) is given as over 8 days. For the same compound, the “TFV-DP mole fraction x(TFV-DP), vaginal tissue, median (IQR)” value in data set [3] (tissue homogenate, IV TAF dosing) is reported as 0.051 (0.022–0.080). Further, the “Share of total TFV species present as TFV-DP, dermal tissue adjacent to TAF implants” value in data set [4] was “less than 1%”. The “Detection by MALDI-IMS” value in data set [1] was “detected”. Also, the “Spatial distribution” value in data set [1] is “distributed homogeneously throughout the samples”. In addition, the “MALDI-IMS signal and localization” value in data set [1] was “weak”.

Take `O=C(O)C[C@@H]1Cc2ccc(OCCCNc3ccccn3)cc2Cc2ccccc21` [SB-265123]: the “Apparent oral F” value in data set [6] is “exceeding 100%”.
